The text below walks through data of BindingDB's records for doi:10.1016/S0960-894X(96)00248-X (1996).

pIC50: −log10 of the molar value.

A short description of this experiment: Inhibitory activity against gastrin receptor.
A word on the pIC50: it is the negative decadic logarithm of the IC50, by convention in mol/L. As for `Cc1cccc(NC(=O)NC2N=C(c3ccccc3)c3ccccc3N(CC(=O)NCCCC(=O)NCCSCc3csc(N=C(N)N)n3)C2=O)c1` (stereo not drawn) [N-[2-(2-Guanidino-thiazol-4-ylmethylsulfanyl)-ethyl]-4-{2-[2-oxo-5-phenyl-3-(3-m-tolyl-ureido)-2,3-dihydro-benzo[e][1,4]diazepin-1-yl]-acetylamino}-butyramide], the pIC50 is 6.72.
The result for `Cc1cccc(NC(=O)NC2N=C(c3ccccc3)c3ccccc3N(CC(=O)NCC(=O)NCCSCc3csc(N=C(N)N)n3)C2=O)c1` (stereo not drawn) [N-{[2-(2-Guanidino-thiazol-4-ylmethylsulfanyl)-ethylcarbamoyl]-methyl}-2-[2-oxo-5-phenyl-3-(3-m-tolyl-ureido)-2,3-dihydro-benzo[e][1,4]diazepin-1-yl]-acetamide] reads 6.43.
The compound `Cc1cccc(NC(=O)NC2N=C(c3cccc(OCC(=O)NCC(=O)NCCSCc4csc(N=C(N)N)n4)c3)c3ccccc3N(C)C2=O)c1` (stereo not drawn) [N-{[2-(2-Guanidino-thiazol-4-ylmethylsulfanyl)-ethylcarbamoyl]-methyl}-2-{3-[1-methyl-2-oxo-3-(3-m-tolyl-ureido)-2,3-dihydro-1H-benzo[e][1,4]diazepin-5-yl]-phenoxy}-acetamide] gave a pIC50 of 7.92.
